ChEMBL document CHEMBL1201862, “PubChem BioAssay data set” (2004)
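Following 48 hours of exposure in 96-well plates, responses at five concentrations were used to interpolate endpoints linearly. Abbreviation: GI50, concentration required for 50% inhibition of growth.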 Activity calls are given as the source filed them. Cut-off read from the data, not from the text of the source: active = GI50 up to about 1.1 µM and inactive = higher.

Key:
Assay in all cases: NCI-60 cell line screen, 48 h
786-0 = system: 786-0
A498 = system: A498
A549 = system: A549
ACHN = system: ACHN
CAKI-1 = system: CAKI-1
CCRF-CEM = system: CCRF-CEM
COLO 205 = system: COLO 205
DLD-1 = system: DLD-1
DMS-114 = system: DMS-114
DMS-273 = system: DMS-273
EKVX = system: EKVX
HCC 2998 = system: HCC 2998
HCT-15 = system: HCT-15
HL-60 = system: HL-60
HOP-18 = system: HOP-18
HOP-62 = system: HOP-62
HOP-92 = system: HOP-92
IGROV-1 = system: IGROV-1
K562 = system: K562
KM-20L2 = system: KM-20L2
KM12 = system: KM12
LXFL 529 = system: LXFL 529
M14 = system: M14
M19-MEL = system: M19-MEL
MOLT-4 = system: MOLT-4
Malme-3M = system: Malme-3M
NCI-H226 = system: NCI-H226
NCI-H23 = system: NCI-H23
NCI-H460 = system: NCI-H460
NCI-H522 = system: NCI-H522
OVCAR-3 = system: OVCAR-3
OVCAR-4 = system: OVCAR-4
OVCAR-5 = system: OVCAR-5
OVCAR-8 = system: OVCAR-8
RPMI-8226 = system: RPMI-8226
SF-268 = system: SF-268
SF-295 = system: SF-295
SF-539 = system: SF-539
SK-MEL-28 = system: SK-MEL-28
SK-MEL-2 = system: SK-MEL-2
SK-MEL-5 = system: SK-MEL-5
SK-OV-3 = system: SK-OV-3
SN12C = system: SN12C
SNB-19 = system: SNB-19
SNB-75 = system: SNB-75
SNB-78 = system: SNB-78
SW-620 = system: SW-620
TK-10 = system: TK-10
U-251 = system: U-251
UACC-257 = system: UACC-257
UACC-62 = system: UACC-62
UO-31 = system: UO-31
XF498 = system: XF498
HCT-116 = system: HCT-116
HT-29 = system: HT-29
LOX IMVI = system: LOX IMVI
RXF 393 = system: RXF 393
SR = system: SR

For `CCn1c(=O)nc2n(-c3ccccc3)c3ccccc3nc-2c1=O`, the GI50 (786-0) was 27.9 µM (inactive), the GI50 (A498) was 47.4 µM (inactive) and the GI50 (A549) was 17.2 µM (inactive). The GI50 (ACHN) was 4.21 µM (inactive), the GI50 (CAKI-1) was 12.5 µM (inactive) and the GI50 (CCRF-CEM) was 21.1 µM (inactive). The GI50 (COLO 205) was 3.85 µM (inactive), the GI50 (DLD-1) was 28.3 µM (inactive) and the GI50 (DMS-114) was 11.1 µM (inactive). For the same molecule, the GI50 (DMS-273) was 12.7 µM (inactive), the GI50 (EKVX) was 43.7 µM (inactive) and the GI50 (HCC 2998) was 21 µM (inactive). The GI50 (HCT-15) was 15.7 µM, the GI50 (HL-60) was 10.7 µM (inactive) and the GI50 (HOP-18) was 61.4 µM (inactive). The GI50 (HOP-62) was 31.7 µM (inactive), the GI50 (HOP-92) was 18.3 µM (inactive) and the GI50 (IGROV-1) was 22.4 µM (inactive). For the same molecule, the GI50 (K562) was 17.9 µM (inactive), the GI50 (KM-20L2) was 10 µM (inactive) and the GI50 (KM12) was 31.3 µM (inactive). For the same molecule, the GI50 (LXFL 529) was 28.4 µM (inactive), the GI50 (M14) was 13.9 µM (inactive) and the GI50 (M19-MEL) was 10.6 µM (inactive). The GI50 (MOLT-4) was 17.3 µM (inactive), the GI50 (Malme-3M) was 16.3 µM (inactive) and the GI50 (NCI-H226) was 20 µM (inactive). The GI50 (NCI-H23) was 25.4 µM (inactive), the GI50 (NCI-H460) was 13.3 µM (inactive) and the GI50 (NCI-H522) was 26.9 µM (inactive). For the same molecule, the GI50 (OVCAR-3) was 3.96 µM (inactive), the GI50 (OVCAR-4) was 12.6 µM (inactive) and the GI50 (OVCAR-5) was 29.3 µM (inactive). For the same molecule, the GI50 (OVCAR-8) was 19.5 µM (inactive), the GI50 (RPMI-8226) was 21.8 µM (inactive) and the GI50 (SF-268) was 17.3 µM (inactive). The GI50 (SF-295) was 24.2 µM (inactive), the GI50 (SF-539) was 14.2 µM (inactive) and the GI50 (SK-MEL-28) was 32.8 µM (inactive). For the same molecule, the GI50 (SK-MEL-2) was 25 µM (inactive), the GI50 (SK-MEL-5) was 10.4 µM (inactive) and the GI50 (SK-OV-3) was > 100 µM (inactive). For the same molecule, the GI50 (SN12C) was 20.6 µM (inactive), the GI50 (SNB-19) was 23 µM (inactive) and the GI50 (SNB-75) was 82.8 µM (inactive). The GI50 (SNB-78) was 49.8 µM (inactive), the GI50 (SW-620) was 14.4 µM (inactive) and the GI50 (TK-10) was > 100 µM (inactive). For the same molecule, the GI50 (U-251) was 17.5 µM (inactive), the GI50 (UACC-257) was 16.7 µM (inactive) and the GI50 (UACC-62) was 12.7 µM (inactive). The GI50 (UO-31) was 35.7 µM (inactive) and the GI50 (XF498) was 4.83 µM (inactive).
In the case of `COc1cc(CCC(=O)NS(=O)(=O)c2ccccc2)cc(OC)c1OC`, the GI50 (786-0) is reported as > 100 µM (inactive), the GI50 (A498) is reported as > 100 µM (inactive) and the GI50 (A549) is reported as > 100 µM (inactive). For the same molecule, the GI50 (ACHN) was > 100 µM (inactive), the GI50 (CAKI-1) was > 100 µM (inactive) and the GI50 (CCRF-CEM) was > 100 µM (inactive). The GI50 (COLO 205) was > 100 µM (inactive), the GI50 (DLD-1) was > 100 µM (inactive) and the GI50 (DMS-114) was > 100 µM (inactive). The GI50 (DMS-273) was > 100 µM (inactive), the GI50 (EKVX) was > 100 µM (inactive) and the GI50 (HCC 2998) was > 100 µM (inactive). The GI50 (HCT-116) was > 100 µM (inactive), the GI50 (HL-60) was > 100 µM (inactive) and the GI50 (HOP-18) was 72.6 µM (inactive). For the same molecule, the GI50 (HOP-62) was > 100 µM (inactive), the GI50 (HOP-92) was > 100 µM (inactive) and the GI50 (HT-29) was > 100 µM (inactive). The GI50 (IGROV-1) was > 100 µM (inactive), the GI50 (K562) was > 100 µM (inactive) and the GI50 (KM-20L2) was > 100 µM (inactive). The GI50 (KM12) was > 100 µM (inactive), the GI50 (LOX IMVI) was > 100 µM (inactive) and the GI50 (LXFL 529) was > 100 µM (inactive). The GI50 (M14) was > 100 µM (inactive), the GI50 (MOLT-4) was > 100 µM (inactive) and the GI50 (Malme-3M) was > 100 µM (inactive). The GI50 (NCI-H226) was > 100 µM (inactive), the GI50 (NCI-H23) was > 100 µM (inactive) and the GI50 (NCI-H460) was > 100 µM (inactive). The GI50 (NCI-H522) was > 100 µM (inactive), the GI50 (OVCAR-3) was > 100 µM (inactive) and the GI50 (OVCAR-4) was > 100 µM (inactive). For the same molecule, the GI50 (OVCAR-5) was > 100 µM (inactive), the GI50 (OVCAR-8) was > 100 µM (inactive) and the GI50 (RPMI-8226) was > 100 µM (inactive). For the same molecule, the GI50 (RXF 393) was > 100 µM (inactive), the GI50 (SF-268) was > 100 µM (inactive) and the GI50 (SF-295) was > 100 µM (inactive). The GI50 (SF-539) was > 100 µM (inactive), the GI50 (SK-MEL-28) was > 100 µM (inactive) and the GI50 (SK-MEL-2) was > 100 µM (inactive). The GI50 (SK-OV-3) was > 100 µM (inactive), the GI50 (SN12C) was > 100 µM (inactive) and the GI50 (SNB-19) was > 100 µM (inactive). For the same molecule, the GI50 (SNB-75) was 61.4 µM (inactive), the GI50 (SNB-78) was > 100 µM (inactive) and the GI50 (SR) was > 100 µM (inactive). The GI50 (SW-620) was > 100 µM (inactive), the GI50 (TK-10) was > 100 µM (inactive) and the GI50 (U-251) was > 100 µM (inactive). For the same molecule, the GI50 (UACC-257) was > 100 µM (inactive), the GI50 (UACC-62) was > 100 µM (inactive) and the GI50 (UO-31) was > 100 µM (inactive). For the same molecule, the GI50 (XF498) was > 100 µM (inactive).
For `Nc1c(-c2ccc(-c3c(N)[n+]([O-])c4ccccc4[n+]3[O-])cc2)[n+]([O-])c2ccccc2[n+]1[O-]`, the GI50 (786-0) was 13.5 µM (inactive), the GI50 (A498) was 18.3 µM (inactive) and the GI50 (A549) was 20.9 µM (inactive). The GI50 (ACHN) was 16.2 µM (inactive), the GI50 (CAKI-1) was 6.65 µM (inactive) and the GI50 (CCRF-CEM) was 38.7 µM (inactive). The GI50 (COLO 205) was 10.1 µM (inactive), the GI50 (DLD-1) was 11.8 µM (inactive) and the GI50 (DMS-114) was 3.4 µM (inactive). The GI50 (DMS-273) was 14.2 µM (inactive), the GI50 (EKVX) was 31.8 µM (inactive) and the GI50 (HCC 2998) was 15.1 µM (inactive). For the same molecule, the GI50 (HCT-15) was 3.92 µM, the GI50 (HL-60) was 13.9 µM (inactive) and the GI50 (HOP-18) was 7.67 µM (inactive). The GI50 (HOP-62) was 17.8 µM (inactive), the GI50 (HOP-92) was > 100 µM (inactive) and the GI50 (HT-29) was 12.1 µM (inactive). For the same molecule, the GI50 (IGROV-1) was 17.7 µM (inactive), the GI50 (K562) was 15.7 µM (inactive) and the GI50 (KM-20L2) was > 10 µM (inactive). For the same molecule, the GI50 (KM12) was 11.1 µM (inactive), the GI50 (LOX IMVI) was 9.75 µM (inactive) and the GI50 (LXFL 529) was 7.87 µM (inactive). The GI50 (M14) was 12.2 µM (inactive), the GI50 (M19-MEL) was 11.3 µM (inactive) and the GI50 (MOLT-4) was 33.3 µM (inactive). The GI50 (Malme-3M) was 3.02 µM (inactive), the GI50 (NCI-H226) was 20.6 µM (inactive) and the GI50 (NCI-H23) was 6.21 µM (inactive). The GI50 (NCI-H460) was 14.3 µM (inactive), the GI50 (NCI-H522) was 1.6 µM (inactive) and the GI50 (OVCAR-3) was 15.7 µM (inactive). The GI50 (OVCAR-4) was 17.7 µM (inactive), the GI50 (OVCAR-5) was 20.5 µM (inactive) and the GI50 (OVCAR-8) was 18.9 µM (inactive). For the same molecule, the GI50 (RPMI-8226) was 23.8 µM (inactive), the GI50 (SF-268) was 17.2 µM (inactive) and the GI50 (SF-295) was 16 µM (inactive). The GI50 (SF-539) was 4.92 µM (inactive), the GI50 (SK-MEL-28) was 5.73 µM (inactive) and the GI50 (SK-MEL-2) was 13.7 µM (inactive). The GI50 (SK-MEL-5) was 10.1 µM (inactive), the GI50 (SK-OV-3) was 24.9 µM (inactive) and the GI50 (SN12C) was 11.7 µM (inactive). The GI50 (SNB-19) was 13.7 µM (inactive), the GI50 (SNB-75) was 8.15 µM (inactive) and the GI50 (SNB-78) was 8.39 µM (inactive). The GI50 (SW-620) was 4.5 µM (inactive), the GI50 (TK-10) was 17.6 µM (inactive) and the GI50 (U-251) was 14.7 µM (inactive). The GI50 (UACC-257) was 3.47 µM (inactive), the GI50 (UACC-62) was 10.2 µM (inactive) and the GI50 (UO-31) was 16.4 µM (inactive). The GI50 (XF498) was 11.5 µM (inactive).
